Test results published in patent US12479840B2, “HMG-CoA reductase degradation inducing compound” (Uppthera, priority 2020, dated 2025).

These compounds were tested against T1, HMG-CoA reductase (Homo sapiens, UniProt P04035) (assay: HMG-CoA reductase (HMGCR) degradation in HepG2 cells by western blotting). Conditions: treated for 18 hours, ratio of HMG-CoA reductase to GAPDH, read-out: DC50.
T1 construct: endogenous in cells; host or cells: HepG2 (Korea Cell Line Bank)
T1 sequence (P04035 1-888): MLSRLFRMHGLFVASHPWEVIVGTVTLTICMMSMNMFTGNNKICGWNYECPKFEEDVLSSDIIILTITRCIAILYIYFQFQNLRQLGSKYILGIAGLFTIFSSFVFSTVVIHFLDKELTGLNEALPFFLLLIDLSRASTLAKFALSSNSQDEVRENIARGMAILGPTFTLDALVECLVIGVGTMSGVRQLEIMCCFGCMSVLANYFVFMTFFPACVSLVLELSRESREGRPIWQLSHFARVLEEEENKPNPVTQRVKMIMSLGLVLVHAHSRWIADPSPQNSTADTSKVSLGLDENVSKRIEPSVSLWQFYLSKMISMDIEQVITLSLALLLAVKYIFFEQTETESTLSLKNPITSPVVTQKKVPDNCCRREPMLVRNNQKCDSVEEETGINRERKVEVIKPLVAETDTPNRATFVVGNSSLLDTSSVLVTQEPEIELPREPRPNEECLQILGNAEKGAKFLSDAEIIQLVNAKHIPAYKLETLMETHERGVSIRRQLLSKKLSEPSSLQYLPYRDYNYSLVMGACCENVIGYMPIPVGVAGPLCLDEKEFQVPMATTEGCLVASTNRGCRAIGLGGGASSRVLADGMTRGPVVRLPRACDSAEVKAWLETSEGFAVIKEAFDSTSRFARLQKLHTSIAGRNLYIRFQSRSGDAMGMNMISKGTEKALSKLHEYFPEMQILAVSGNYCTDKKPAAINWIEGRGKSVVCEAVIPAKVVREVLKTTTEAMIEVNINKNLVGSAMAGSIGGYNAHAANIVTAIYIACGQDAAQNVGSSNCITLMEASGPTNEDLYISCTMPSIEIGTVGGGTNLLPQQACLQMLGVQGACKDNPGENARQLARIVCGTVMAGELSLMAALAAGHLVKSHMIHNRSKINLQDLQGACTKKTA
Type: cell-based
Method: HepG2, a human liver cancer cell line, was purchased from the Korea Cell Line Bank (KCLB), Seoul, Korea. The passage in cell culture was maintained at P105 to P110.
The compounds of the present invention were completely dissolved in DMSO and used in the experiment. 2×10^5 cells were seeded for each well of a 12-well plate (SPL), and the cells were cultured in the culture medium in a total volume of 2 ml. Each of the compounds of the present invention and comparative compounds was diluted three folds from the highest concentration of 3 μM to the lowest concentration in 10 points and treated for 18 hours.
Each of the compounds the present invention and comparative compounds was diluted three folds from the highest concentration of 3 μM to the lowest concentration of […] in 10 points and was treated for 18 hours.
For SDS-PAGE and Western blotting, 1×RIPA lysis buffer (Rockland, Cat. No. MB-030-0050; Lot no. 39751), 100× Protease Inhibitor Cocktail (Quartett, Cat. No. PPI1015; Lot no. PCO50038424), Pierce™ BCA protein assay kit (ThermoScientific, Cat. No. 23225; Lot no. UC276876), albumin standard (ThermoScientific, Cat. No. 23209; Lot no. UB269561), 4-15% Mini-PROTEAN TGX stain-free gel (Bio-rad, Cat. No. 4568085; Lot no. L007041B), 10× Tris/Glycine/SDS buffer (Bio-rad, Cat. No. 1610732; Lot no. 10000044375B); 10×TBS (Bio-rad, Cat. No. 1706435; Lot no. 1000045140B), 10% Tween 20 (Cat. No. 1610781; Lot no. L004152B), Color protein standard broad range (NEB, Cat. No. P7719S; Lot no. 10040349), 4× Laemmli sample buffer (Bio-rad, Cat. No. 1610747; Lot no. L004133B), β-mercaptoethanol (Sigma-Aldrich, Cat. No. M3148; Lot no. 60-24-2), SuperBlock™ T20 (TBS) blocking buffer (ThermoScientific, Cat. No. 37536; Lot no. UC282578), 1M sodium azide solution (Sigma-Aldrich, Cat. No. 08591-1 mL-F; Lot no. BCBV4989), α-Rabbit pAb to Ms IgG (abcam, Cat. No. ab97046; Lot no. GR3252115-1), α-Goat pAb to Rb IgG (CST, Cat. No. 7074S; Lot no. 28), α-GAPDH (abcam, Cat. No. ab8245), α-HMGCR (GeneTex, Cat. No. GTX54088; Lot no. 821903509), ECL™ Prime western blotting reagents (GE Healthcare, Cat. No. RPN2232; Lot no. 17001655), Ponceau S solution (Sigma-Aldrich, Cat. No. P7170; Lot no. SLBV4112), Difco™ Skim milk (BD, Cat. No. 232100; Lot no. 8346795), and iBlot® 2 NC Regular stacks (Invitrogen, Cat. No. IB23001; Lot no. 2NR110619-02), were used.
For cell harvesting, the cells were first separated from the plate using trypsin and then washed with the medium and PBS. Specifically, the medium was suctioned off and washed with 1 mL of PBS, and PBS was suctioned off. The cells were treated with 0.5 mL TrypLE™ Express at 37° C. for 7 minutes to separate the cells, and then 0.5 mL of complete medium was added to collect 1 mL of cell culture solution. Then, 1 mL of the cell collection solution was centrifuged at 8,000 rpm for 120 seconds, and the supernatant was removed. After washing with 0.2 mL of PBS, the PBS was removed.
For cell lysis, a lysis buffer was added and cell debris was removed to obtain a cell lysate. Specifically, the cells were treated with 70 μL of 1×RIPA buffer containing a protease inhibitor and incubated for 30 minutes on ice. Then, the cells were centrifuged at 4° C. and 15,000 rpm for 10 minutes to obtain a cell lysate.
Then, a standard curve was obtained using the BCA assay, and the protein mass in the lysate was quantified by substituting the curve. The mixture was incubated at 37° C. for 30 minutes using 20 μL of standard or sample solution, and 200 μL of BCA or Bradford solution, and measured at 562 nm absorbance. Samples were prepared by adding 4× sample buffer so that the quantity of protein added to each well was 15 μg.
Sodium dodecyl sulfate polyacrylamide gel electrophoresis (SDS-PAGE) was performed by setting a running time of 100 minutes at 120 V on a 4-15% Mini-PROTEAN TGX stain-free gel (15 well). Transferring was performed on iBlot® 2 NC Mini stacks at P0 mode of the dry blotting system. […]

SMILES | DC50 [nM]
C[C@H]1C=C2C=C[C@H](C)[C@H](CC[C@@H]3C[C@@H](O[Si](C)(C)C(C)(C)C)CC(=O)O3)[C@H]2[C@@H](OC(=O)NCCOCCOCCNc2ccc3c(c2)C(=O)N(C2CCC(=O)NC2=O)C3=O)C1 (stereo partly drawn) [Compound 67, (1S,3R,7S,8S,8aR)-8-(2-((2R,4R)-4-((tert-butyldimethylsilyl)oxy)-6-oxotetrahydro-2H-pyran-2-yl)ethyl)-3,7-dimethyl-1,2,3,7,8,8a-hexahydronaphthalen-1-yl (2-(2-(2-((2-(2,6-dioxopiperidin-3-yl)-1,3-dioxoisoindolin-5-yl)amino)ethoxy)ethoxy)ethyl)carbamate] | < 50
Cc1ncsc1-c1ccc(CNC(=O)[C@@H]2C[C@@H](O)CN2C(=O)[C@@H](NC(=O)CCCN2CCC(CCCNC(=O)O[C@@H]3C[C@H](C)C=C4C=C[C@@H](C)[C@@H](CC[C@H]5C[C@H](O)CC(=O)O5)[C@@H]43)CC2)C(C)(C)C)cc1 [Compound 162, (1R,3S,7R,8R,8aS)-8-(2-((2S,4S)-4-hydroxy-6-oxotetrahydro-2H-pyran-2-yl)ethyl)-3,7-dimethyl-1,2,3,7,8,8a-hexahydronaphthalen-1-yl (3-(1-(4-(((S)-1-((2S,4R)-4-hydroxy-2-((4-(4-methylthiazol-5-yl)benzyl)carbamoyl)pyrrolidin-1-yl)-3,3-dimethyl-1-oxobutan-2-yl)amino)-4-oxobutyl)piperidin-4-yl)propyl)carbamate] | < 50
C[C@H]1C=C2C=C[C@H](C)[C@H](CC[C@@H]3C[C@@H](O[Si](C)(C)C(C)(C)C)CC(=O)O3)[C@H]2[C@@H](OC(=O)N(C)CCOCCOCCNc2cccc3c2C(=O)N(C2CCC(=O)NC2=O)C3=O)C1 (stereo partly drawn) [Compound 82, (1S,3R,7S,8S,8aR)-8-(2-((2R,4R)-4-((tert-butyldimethylsilyl)oxy)-6-oxotetrahydro-2H-pyran-2-yl)ethyl)-3,7-dimethyl-1,2,3,7,8,8a-hexahydronaphthalen-1-yl (2-(2-(2-((2-(2,6-dioxopiperidin-3-yl)-1,3-dioxoisoindolin-4-yl)amino)ethoxy)ethoxy)ethyl)(methyl)carbamate] | < 50
C[C@H]1C=C2C=C[C@H](C)[C@H](CC[C@@H]3C[C@@H](O[Si](C)(C)C(C)(C)C)CC(=O)O3)[C@H]2[C@@H](OC(=O)N2CCC(CCOCCNc3cccc4c3C(=O)N(C3CCC(=O)NC3=O)C4=O)CC2)C1 (stereo partly drawn) [Compound 84, (1S,3R,7S,8S,8aR)-8-(2-((2R,4R)-4-((tert-butyldimethylsilyl)oxy)-6-oxotetrahydro-2H-pyran-2-yl)ethyl)-3,7-dimethyl-1,2,3,7,8,8a-hexahydronaphthalen-1-yl4-(2-(2-((2-(2,6-dioxopiperidin-3-yl)-1,3-dioxoisoindolin-4-yl)amino)ethoxy)ethyl)piperidine-1-carboxylate] | < 50
C[C@H]1C=C2C=C[C@H](C)[C@H](CC[C@@H]3C[C@@H](O[Si](c4ccccc4)(c4ccccc4)C(C)(C)C)CC(=O)O3)[C@H]2[C@@H](OC(=O)NCCOCCOCCNc2cccc3c2C(=O)N(C2CCC(=O)NC2=O)C3=O)C1 (stereo partly drawn) [Compound 71, (1S,3R,7S,8S,8aR)-8-(2-((2R,4R)-4-((tert-butyldiphenylsilyl)oxy)-6-oxotetrahydro-2H-pyran-2-yl)ethyl)-3,7-dimethyl-1,2,3,7,8,8a-hexahydronaphthalen-1-yl (2-(2-(2-((2-(2,6-dioxopiperidin-3-yl)-1,3-dioxoisoindolin-4-yl)amino)ethoxy)ethoxy)ethyl)carbamate] | < 50
Cc1ncsc1-c1ccc(CNC(=O)[C@@H]2C[C@@H](O)CN2C(=O)[C@@H](NC(=O)C2(F)CC2)C(C)(C)C)c(OCCCCCCCCCCNC(=O)O[C@H]2C[C@@H](C)C=C3C=C[C@H](C)[C@H](CC[C@@H]4C[C@@H](O)CC(=O)O4)[C@H]32)c1 [Compound 167, (1S,3R,7S,8S,8aR)-8-(2-((2R,4R)-4-hydroxy-6-oxotetrahydro-2H-pyran-2-yl)ethyl)-3,7-dimethyl-1,2,3,7,8,8a-hexahydronaphthalen-1-yl (10-(2-(((2S,4R)-1-((S)-2-(1-fluorocyclopropane-1-carboxamido)-3,3-dimethylbutanoyl)-4-hydroxypyrrolidine-2-carboxamido)methyl)-5-(4-methylthiazol-5-yl)phenoxy)decyl)carbamate] | < 50
C[C@H]1C=C2C=C[C@H](C)[C@H](CC[C@@H]3C[C@@H](O)CC(=O)O3)[C@H]2[C@@H](OC(=O)NCCCCOCCCCNc2cccc3c2C(=O)N(C2CCC(=O)NC2=O)C3=O)C1 (stereo partly drawn) [Compound 89, (1S,3R,7S,8S,8aR)-8-(2-((2R,4R)-4-hydroxy-6-oxotetrahydro-2H-pyran-2-yl)ethyl)-3,7-dimethyl-1,2,3,7,8,8a-hexahydronaphthalen-1-yl (4-(4-((2-(2,6-dioxopiperidin-3-yl)-1,3-dioxoisoindolin-4-yl)amino)butoxy)butyl)carbamate] | < 50
